# Data as given in ChEMBL document CHEMBL5505955, “Exploring the potential of histone demethylase inhibition in multi-therapeutic approaches for cancer treatment” (Eur J Med Chem, 2024).
# Key:
# [1] = biological target: T1, Amine oxidase [flavin-containing] A (Homo sapiens, UniProt P21397); test: Inhibition of MAO-A (unknown origin) measured by MAO-GloTM method
# T1 sequence (P21397 whole entry): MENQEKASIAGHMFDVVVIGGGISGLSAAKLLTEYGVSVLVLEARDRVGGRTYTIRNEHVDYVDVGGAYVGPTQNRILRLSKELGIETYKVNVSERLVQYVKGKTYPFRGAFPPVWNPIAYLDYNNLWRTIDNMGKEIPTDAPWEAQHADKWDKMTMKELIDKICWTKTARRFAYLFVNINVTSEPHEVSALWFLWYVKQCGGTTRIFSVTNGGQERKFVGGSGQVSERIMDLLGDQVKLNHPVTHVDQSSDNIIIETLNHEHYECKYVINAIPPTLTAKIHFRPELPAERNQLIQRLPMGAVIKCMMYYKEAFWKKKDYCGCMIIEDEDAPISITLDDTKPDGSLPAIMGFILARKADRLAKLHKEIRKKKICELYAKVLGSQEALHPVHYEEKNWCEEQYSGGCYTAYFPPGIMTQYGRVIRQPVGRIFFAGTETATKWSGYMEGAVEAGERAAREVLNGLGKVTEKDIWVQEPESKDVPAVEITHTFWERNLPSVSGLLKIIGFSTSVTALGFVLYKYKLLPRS
# [2] = biological target: T2, Lysine-specific histone demethylase 1A (Homo sapiens, UniProt O60341); test: Inhibition of human recombinant LSD1 incubated for 60 mins by fluorescence based analysis
# MIA PaCa-2 = test: Antiproliferative activity against human MIA PaCa-2 cells assessed as reduction in cell viability incubated for 72 hrs by MTT assay; type: functional, cell-based; settings: MIA PaCa-2, 72 h
# A549 = test: Antiproliferative activity against human A549 cells assessed as reduction in cell viability incubated for 72 hrs by MTT assay; type: functional, cell-based; settings: A549, 72 h
# HT-29 = test: Antiproliferative activity against human HT-29 cells assessed as reduction in cell viability incubated for 72 hrs by MTT assay; type: functional, cell-based; settings: HT-29, 72 h
# A2058 = test: Antiproliferative activity against human A2058 cells assessed as reduction in cell viability incubated for 72 hrs by MTT assay; type: functional, cell-based; settings: A2058, 72 h
# Bel-7402 = test: animal or person; settings: Mus musculus, Bel-7402, po, 504 h, read-out: TGI
# Description: Anticancer activity against human Bel-7402 cells xenografted in nude mouse model assessed as tumor growth inhibition at 60 mg/kg, IG administered for 21 days relative to control
# Histone deacetylase 1 = Histone deacetylase 1 (Homo sapiens, UniProt Q13547); test: Inhibition of HDAC1 (unknown origin)
# [3] = biological target: T2, Lysine-specific histone demethylase 1A
# Description: Inhibition of LSD1 (unknown origin)
# NCI-H1975 = test: cells; settings: Homo sapiens
# Chain of Histone deacetylase 1 (Q13547 whole entry): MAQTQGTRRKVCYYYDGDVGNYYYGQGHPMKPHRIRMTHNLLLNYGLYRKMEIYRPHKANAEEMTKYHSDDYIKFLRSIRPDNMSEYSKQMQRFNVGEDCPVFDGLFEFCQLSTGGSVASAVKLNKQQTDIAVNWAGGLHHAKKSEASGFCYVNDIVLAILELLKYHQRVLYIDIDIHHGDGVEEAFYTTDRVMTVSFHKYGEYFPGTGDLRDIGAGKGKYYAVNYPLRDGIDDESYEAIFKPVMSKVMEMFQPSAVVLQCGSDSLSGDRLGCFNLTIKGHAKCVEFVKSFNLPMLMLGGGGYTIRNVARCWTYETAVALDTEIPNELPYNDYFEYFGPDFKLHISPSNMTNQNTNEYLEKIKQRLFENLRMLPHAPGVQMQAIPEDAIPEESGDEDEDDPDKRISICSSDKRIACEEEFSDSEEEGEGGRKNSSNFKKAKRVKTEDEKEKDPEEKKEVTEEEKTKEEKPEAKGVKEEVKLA
compound,measurement,setting,value
COC1=CC(=O)OC(/C=C/c2ccccc2)C1 (stereo unspecified),IC50,[1],1.29 nM
same,IC50,[2],3850 nM
O=C(N/N=C/c1ccccc1O)c1cccc(Cl)c1,IC50,MIA PaCa-2,9500 nM
same,IC50,A549,2400 nM
same,IC50,HT-29,950 nM
same,IC50,A2058,6500 nM
COc1ccc(S(=O)(=O)N(CCSC(=S)N2CCN(C)CC2)c2cc(OC)c(OC)c(OC)c2)cc1,inhibition in vivo at 60 mg/kg,Bel-7402,43%
NC1CC1c1ccc(NC(=O)CCC(=O)NCCCNCCCCNCCCNC(=O)c2ccc(NC(=O)CCCCCCC(=O)NO)cc2)cc1 (stereo unspecified),IC50,Histone deacetylase 1,42.5 nM
same,IC50,[3],3850 nM
O=C(O)c1ccc(CN2CCC(CN[C@@H]3C[C@H]3c3ccccc3)CC2)cc1 [GSK2879552],IC50,[3],1700 nM
